Assay results from patent US20250368649A1, “TETRAHYDROPYRIDOPYRIMIDINE PAN-KRAS INHIBITORS” (Mirati Therapeutics, Inc., priority 2022, published 2025).

What was measured:
[1] = target: KRas G12V (Homo sapiens, UniProt P01116, G12V); test: biochemical; conditions: Binding to KRas (IC50 nM) G12V, TR-FRET displacement, KRas G12V
[2] = target: KRas G12D (Homo sapiens, UniProt P01116, G12D); test: biochemical; conditions: Binding to KRas (IC50 nM) G12D, TR-FRET displacement, KRas G12D
Sequence of KRas G12D (P01116 1-169 isoform P01116-2 G12D): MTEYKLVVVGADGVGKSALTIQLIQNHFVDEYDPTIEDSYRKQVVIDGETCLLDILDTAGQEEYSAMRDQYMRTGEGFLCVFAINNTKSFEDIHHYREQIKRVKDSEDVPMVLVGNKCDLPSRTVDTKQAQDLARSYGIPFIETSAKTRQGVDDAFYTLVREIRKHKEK

Sequence of KRas G12V (P01116 1-169 isoform P01116-2 G12V): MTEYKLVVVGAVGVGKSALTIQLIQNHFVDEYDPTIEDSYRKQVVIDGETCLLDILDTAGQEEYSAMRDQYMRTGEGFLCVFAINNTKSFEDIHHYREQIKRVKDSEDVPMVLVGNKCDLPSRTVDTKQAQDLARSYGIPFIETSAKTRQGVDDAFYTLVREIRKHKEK

Row | SMILES | IC50 [1] [nM] | IC50 [2] [nM]
1 | CCc1cccc2cccc(N3CCc4c(nc(OCC5(CN(C)C)CC5)nc4N4CCCC(n5cccn5)C4)C3)c12 (stereo not shown) [Example 682, 1-(1-(((4-(3-(1H-pyrazol-1-yl)piperidin-1-yl)-7-(8-ethylnaphthalen-1-yl)-5,6,7,8-tetrahydropyrido[3,4-d]pyrimidin-2-yl)oxy)methyl)cyclopropyl)-N,N-dimethylmethanamine] | 1760 | 1610
2 | CCc1cccc2cccc(N3CCc4c(nc(OCC5(CN(C)C)CC5)nc4NCCc4nncn4C(C)C)C3)c12 [Example 571, 2-((1-((dimethylamino)methyl)cyclopropyl)methoxy)-7-(8-ethylnaphthalen-1-yl)-N-(2-(4-isopropyl-4H-1,2,4-triazol-3-yl)ethyl)-5,6,7,8-tetrahydropyrido[3,4-d]pyrimidin-4-amine] | 6720 | 75700
3 | CCc1cccc2cccc(N3CCc4c(nc(OCC5(CN(C)C)CC5)nc4N(C)Cc4nncn4C)C3)c12 [Example 668, 2-((1-((dimethylamino)methyl)cyclopropyl)methoxy)-7-(8-ethylnaphthalen-1-yl)-N-methyl-N-((4-methyl-4H-1,2,4-triazol-3-yl)methyl)-5,6,7,8-tetrahydropyrido[3,4-d]pyrimidin-4-amine] | 2050 | 8990
4 | CCc1cccc2cccc(N3CCc4c(nc(OCC5(CN(C)C)CC5)nc4N4CCCC(c5ccon5)C4)C3)c12 (stereo not shown) [Example 681, 1-(1-(((7-(8-ethylnaphthalen-1-yl)-4-(3-(isoxazol-3-yl)piperidin-1-yl)-5,6,7,8-tetrahydropyrido[3,4-d]pyrimidin-2-yl)oxy)methyl)cyclopropyl)-N,N-dimethylmethanamine] | 3220 | 3830
5 | CCc1cccc2cccc(N3CCc4c(nc(OCC5(CN(C)C)CC5)nc4NCC4(NC(=O)OC(C)(C)C)CCOC4)C3)c12 (stereo not shown) [Example 573, tert-butyl (3-(((2-((1-((dimethylamino)methyl)cyclopropyl)methoxy)-7-(8-ethylnaphthalen-1-yl)-5,6,7,8-tetrahydropyrido[3,4-d]pyrimidin-4-yl)amino)methyl)tetrahydrofuran-3-yl)carbamate] | 7840 | 96000
6 | CCc1cccc2cccc(N3CCc4c(nc(OCC5(CN(C)C)CC5)nc4N4CCCC(c5nc(C)c(C)[nH]5)C4)C3)c12 (stereo not shown) [Example 687, 1-(1-(((4-(3-(4,5-dimethyl-1H-imidazol-2-yl)piperidin-1-yl)-7-(8-ethylnaphthalen-1-yl)-5,6,7,8-tetrahydropyrido[3,4-d]pyrimidin-2-yl)oxy)methyl)cyclopropyl)-N,N-dimethylmethanamine] | 6230 | 10800
7 | CCc1cccc2cccc(N3CCc4c(nc(OCC5(CN(C)C)CC5)nc4NCc4ncn(C(C)C)n4)C3)c12 [Example 673, 2-((1-((dimethylamino)methyl)cyclopropyl)methoxy)-7-(8-ethylnaphthalen-1-yl)-N-((1-isopropyl-1H-1,2,4-triazol-3-yl)methyl)-5,6,7,8-tetrahydropyrido[3,4-d]pyrimidin-4-amine] | 2440 | 8420
8 | CCc1cccc2cccc(N3CCc4c(nc(OCC5(CN(C)C)CC5)nc4NCc4nnc(C5CCOC5)[nH]4)C3)c12 (stereo not shown) [Example 691, 2-((1-((dimethylamino)methyl)cyclopropyl)methoxy)-7-(8-ethylnaphthalen-1-yl)-N-((5-(tetrahydrofuran-3-yl)-4H-1,2,4-triazol-3-yl)methyl)-5,6,7,8-tetrahydropyrido[3,4-d]pyrimidin-4-amine] | 5300 | 7300
9 | CCc1cccc2cccc(N3CCc4c(nc(OCC5(CN(C)C)CC5)nc4N4CCCC(c5c[nH]cn5)C4)C3)c12 (stereo not shown) [Example 680, 1-(1-(((4-(3-(1H-imidazol-4-yl)piperidin-1-yl)-7-(8-ethylnaphthalen-1-yl)-5,6,7,8-tetrahydropyrido[3,4-d]pyrimidin-2-yl)oxy)methyl)cyclopropyl)-N,N-dimethylmethanamine] | 3130 | 5490
10 | CCc1cccc2cccc(N3CCc4c(nc(OCC5(CN(C)C)CC5)nc4N4CCCC(c5ccn(C)n5)C4)C3)c12 (stereo not shown) [Example 689, 1-(1-(((7-(8-ethylnaphthalen-1-yl)-4-(3-(1-methyl-1H-pyrazol-3-yl)piperidin-1-yl)-5,6,7,8-tetrahydropyrido[3,4-d]pyrimidin-2-yl)oxy)methyl)cyclopropyl)-N,N-dimethylmethanamine] | 4310 | 7420
11 | CCc1cccc2cccc(N3CCc4c(nc(OCC5(CN(C)C)CC5)nc4N4CCOCC(CC)C4)C3)c12 (stereo not shown) [Example 672, 1-(1-(((4-(6-ethyl-1,4-oxazepan-4-yl)-7-(8-ethylnaphthalen-1-yl)-5,6,7,8-tetrahydropyrido[3,4-d]pyrimidin-2-yl)oxy)methyl)cyclopropyl)-N,N-dimethylmethanamine] | 1440 | 1280

More lines, in order of falling IC50 [1], values ahead:

Row | IC50 [1] [nM] | IC50 [2] [nM] | SMILES
12 | 1420 | 2310 | CCc1cccc2cccc(N3CCc4c(nc(OCC5(CN(C)C)CC5)nc4N4CCCOC(CC)C4)C3)c12 (stereo not shown) [Example 663, 1-(1-(((4-(2-ethyl-1,4-oxazepan-4-yl)-7-(8-ethylnaphthalen-1-yl)-5,6,7,8-tetrahydropyrido[3,4-d]pyrimidin-2-yl)oxy)methyl)cyclopropyl)-N,N-dimethylmethanamine]
13 | 1360 | 5440 | CCc1cccc2cccc(N3CCc4c(nc(OCC5(CN(C)C)CC5)nc4N4CCCC(c5nc(=O)[nH][nH]5)C4)C3)c12 (stereo not shown) [Example 690, 5-(1-(2-((1-((dimethylamino)methyl)cyclopropyl)methoxy)-7-(8-ethylnaphthalen-1-yl)-5,6,7,8-tetrahydropyrido[3,4-d]pyrimidin-4-yl)piperidin-3-yl)-1,2-dihydro-3H-1,2,4-triazol-3-one]
14 | 317 | 254 | CCc1cccc2cccc(N3CCc4c(nc(OCC5(CN(C)C)CC5)nc4N4CCOCC(C)C4)C3)c12 (stereo not shown) [Example 664, 1-(1-(((7-(8-ethylnaphthalen-1-yl)-4-(6-methyl-1,4-oxazepan-4-yl)-5,6,7,8-tetrahydropyrido[3,4-d]pyrimidin-2-yl)oxy)methyl)cyclopropyl)-N,N-dimethylmethanamine]
15 | 238 | 340 | CCc1cccc2cccc(N3CCc4c(nc(OCC5(CN(C)C)CC5)nc4N4CCOCC(O)C4)C3)c12 (stereo not shown) [Example 666, 4-(2-((1-((dimethylamino)methyl)cyclopropyl)methoxy)-7-(8-ethylnaphthalen-1-yl)-5,6,7,8-tetrahydropyrido[3,4-d]pyrimidin-4-yl)-1,4-oxazepan-6-ol]
16 | 210 | 197 | CCc1cccc2cccc(N3CCc4c(nc(OCC5(CN(C)C)CC5)nc4N4CCOCC(CO)C4)C3)c12 (stereo not shown) [Example 678, (4-(2-((1-((dimethylamino)methyl)cyclopropyl)methoxy)-7-(8-ethylnaphthalen-1-yl)-5,6,7,8-tetrahydropyrido[3,4-d]pyrimidin-4-yl)-1,4-oxazepan-6-yl)methanol]
17 | 199 | 190 | CCc1cccc2cccc(N3CCc4c(nc(OCC5(CN(C)C)CC5)nc4N4CCCOCC4)C3)c12 [Example 669, 1-(1-(((7-(8-ethylnaphthalen-1-yl)-4-(1,4-oxazepan-4-yl)-5,6,7,8-tetrahydropyrido[3,4-d]pyrimidin-2-yl)oxy)methyl)cyclopropyl)-N,N-dimethylmethanamine]
